Reference: PubChem BioAssay (NCI)
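Grown in 96-well plates, cells were treated for 48 hours with each compound at five concentrations. Insufficient inhibition: endpoint recorded as highest concentration tested. GI50 = concentration required for 50% inhibition of growth. TGI is the concentration that stops growth completely.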

How the values were obtained:
Experiment in all cases: DTP human tumour cell line panel, 48 h
HOP-62 NSCLC = test system: HOP-62 NSCLC
T-47D breast = test system: T-47D breast
OVCAR-5 ovarian = test system: OVCAR-5 ovarian
K-562 leukemia = test system: K-562 leukemia
COLO 205 colon = test system: COLO 205 colon
HOP-92 NSCLC = test system: HOP-92 NSCLC
SK-MEL-2 melanoma = test system: SK-MEL-2 melanoma
SK-MEL-28 melanoma = test system: SK-MEL-28 melanoma
A498 renal = test system: A498 renal
OVCAR-3 ovarian = test system: OVCAR-3 ovarian
HL-60(TB) leukemia = test system: HL-60(TB) leukemia
MDA-MB-231 breast = test system: MDA-MB-231 breast
PC-3 prostate = test system: PC-3 prostate
MDA-MB-435 = test system: MDA-MB-435
RPMI-8226 leukemia = test system: RPMI-8226 leukemia
NCI-H522 lung = test system: NCI-H522 lung
786-0 renal = test system: 786-0 renal
NCI-H226 lung = test system: NCI-H226 lung
KM12 colon = test system: KM12 colon
SNB-75 CNS = test system: SNB-75 CNS
HS 578T breast = test system: HS 578T breast
OVCAR-8 ovarian = test system: OVCAR-8 ovarian
HCT-116 colon = test system: HCT-116 colon
BT-549 breast = test system: BT-549 breast
DU-145 prostate = test system: DU-145 prostate
EKVX NSCLC = test system: EKVX NSCLC
IGROV1 ovarian = test system: IGROV1 ovarian
SF-268 CNS = test system: SF-268 CNS
ACHN renal = test system: ACHN renal

COc1cc(/C=N/NC(=O)c2ccc3nc(-c4ccc(Cl)cc4)[nH]c3c2)cc(OC)c1OC
GI50 (HOP-62 NSCLC): 4.68 µM | TGI (HOP-62 NSCLC): 16.4 µM | GI50 (T-47D breast): 3.48 µM | TGI (T-47D breast): 21 µM | GI50 (OVCAR-5 ovarian): 15.6 µM | TGI (OVCAR-5 ovarian): 41.2 µM | GI50 (K-562 leukemia): 1.96 µM | TGI (K-562 leukemia): 6.33 µM | GI50 (COLO 205 colon): 2.84 µM | TGI (COLO 205 colon): 24.4 µM | GI50 (HOP-92 NSCLC): 5.95 µM | TGI (HOP-92 NSCLC): 23.2 µM | GI50 (SK-MEL-2 melanoma): 11 µM | TGI (SK-MEL-2 melanoma): 25 µM | GI50 (SK-MEL-28 melanoma): 1.83 µM | TGI (SK-MEL-28 melanoma): 6.78 µM | GI50 (A498 renal): 26.4 µM | TGI (A498 renal): 77.6 µM | GI50 (OVCAR-3 ovarian): 2.28 µM | TGI (OVCAR-3 ovarian): 4.88 µM | GI50 (HL-60(TB) leukemia): 3.9 µM | TGI (HL-60(TB) leukemia): 60.4 µM | GI50 (MDA-MB-231 breast): 3.39 µM | TGI (MDA-MB-231 breast): 11.1 µM | GI50 (PC-3 prostate): 5.73 µM | TGI (PC-3 prostate): > 100 µM | GI50 (MDA-MB-435): 4.13 µM | TGI (MDA-MB-435): 15.3 µM | GI50 (RPMI-8226 leukemia): 3.21 µM | TGI (RPMI-8226 leukemia): > 100 µM | GI50 (NCI-H522 lung): 4.9 µM | TGI (NCI-H522 lung): 20.9 µM | GI50 (786-0 renal): 4.88 µM | TGI (786-0 renal): 18.7 µM | GI50 (NCI-H226 lung): 1.31 µM | TGI (NCI-H226 lung): 16.1 µM | GI50 (KM12 colon): 4.5 µM | TGI (KM12 colon): 17.9 µM | GI50 (SNB-75 CNS): 1.28 µM | TGI (SNB-75 CNS): 6.68 µM | GI50 (HS 578T breast): 2.58 µM | TGI (HS 578T breast): 7 µM | GI50 (OVCAR-8 ovarian): 3.87 µM | TGI (OVCAR-8 ovarian): 18.9 µM | GI50 (HCT-116 colon): 3.26 µM | TGI (HCT-116 colon): 10.6 µM | GI50 (BT-549 breast): 2.69 µM | TGI (BT-549 breast): 9.27 µM | GI50 (DU-145 prostate): 6.77 µM | TGI (DU-145 prostate): 20.9 µM | GI50 (EKVX NSCLC): 14.8 µM | TGI (EKVX NSCLC): 97.2 µM | GI50 (IGROV1 ovarian): 11 µM | TGI (IGROV1 ovarian): 30.8 µM | GI50 (SF-268 CNS): 4.4 µM | TGI (SF-268 CNS): 20.5 µM | GI50 (ACHN renal): 7.93 µM | TGI (ACHN renal): > 100 µM
